Toxic doses and inconclusive results are not listed. How the source made its calls: active means survival T/C of 150% or more; inactive means T/C below 125% in these data. Non-standard residues stand in square brackets, D forms with d. Residues, ends and D or L forms follow the SMILES beside them. ξ: configuration not given here. ξLac(3-iPr) = CC(C)CC(O)C(=O)O; NMeV = CN[CH](C(=O)O)C(C)C; NMeA = CN[CH](C)C(=O)O; βAla = NCCC(=O)O
Test system: BDF1 mice, P388 leukemia ip, median survival T/C
Experiment: NCI In Vivo Anticancer Drug Screen. Data for tumor model P388 Leukemia (intraperitoneal) in B6D2F1 (BDF1) mice
Settings: endpoint: median survival time, higher = longer survival
How it was run: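 Read-out is survival of treated animals expressed relative to the vehicle group, as a T/C ratio.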

[1] = dose: 10.0 mg/kg/injection, schedule: Q01DX009 (ip), vehicle: saline
[2] = dose: 100.0 mg/kg/injection, schedule: Q01DX009 (ip), vehicle: saline with Tween-80
[3] = dose: 200.0 mg/kg/injection, schedule: Q01DX009 (ip), vehicle: saline with Tween-80
[4] = dose: 100.0 mg/kg/injection, schedule: Q04DX003 (ip), vehicle: saline with Tween-80
[5] = dose: 200.0 mg/kg/injection, schedule: Q04DX003 (ip), vehicle: saline with Tween-80
[6] = dose: 400.0 mg/kg/injection, schedule: Q04DX003 (ip), vehicle: saline with Tween-80
[7] = dose: 50.0 mg/kg/injection, schedule: Q04DX002 (ip), vehicle: saline with Tween-80
[8] = dose: 100.0 mg/kg/injection, schedule: Q01DX009 (ip), vehicle: Klucel (hydroxypropylcellulose) (HPC)
[9] = dose: 100.0 mg/kg/injection, schedule: Q04DX003 (ip), vehicle: Klucel (hydroxypropylcellulose) (HPC)
[10] = dose: 200.0 mg/kg/injection, schedule: Q01DX009 (ip), vehicle: Klucel (hydroxypropylcellulose) (HPC)
[11] = dose: 200.0 mg/kg/injection, schedule: Q04DX003 (ip), vehicle: Klucel (hydroxypropylcellulose) (HPC)
[12] = dose: 400.0 mg/kg/injection, schedule: Q01DX009 (ip), vehicle: Klucel (hydroxypropylcellulose) (HPC)
[13] = dose: 400.0 mg/kg/injection, schedule: Q04DX003 (ip), vehicle: Klucel (hydroxypropylcellulose) (HPC)
[14] = dose: 50.0 mg/kg/injection, schedule: Q01DX009 (ip), vehicle: saline with Tween-80
[15] = dose: 0.37 mg/kg/injection, schedule: Q01DX009 (ip), vehicle: Klucel (hydroxypropylcellulose) (HPC)
[16] = dose: 400.0 mg/kg/injection, schedule: Q01DX009 (ip), vehicle: saline with Tween-80

Measured: T/C

CS(=O)(=O)OCCCNCCCOS(C)(=O)=O
inactive: dose: 80.0 mg/kg/injection, schedule: Q01DX010 (ip), vehicle: saline 94 % of control
active: [1] 228 % of control | dose: 10.0 mg/kg/injection, schedule: Q01DX010 (ip), vehicle: saline 255 % of control | dose: 12.0 mg/kg/injection, schedule: Q04DX003 (ip), vehicle: saline 186 % of control | dose: 19.0 mg/kg/injection, schedule: Q04DX003 (ip), vehicle: saline 204 % of control | dose: 20.0 mg/kg/injection, schedule: Q01DX009 (ip), vehicle: saline 255 % of control | dose: 20.0 mg/kg/injection, schedule: Q01DX010 (ip), vehicle: saline 300 % of control | dose: 29.0 mg/kg/injection, schedule: Q04DX003 (ip), vehicle: saline 209 % of control | dose: 40.0 mg/kg/injection, schedule: Q01DX009 (ip), vehicle: saline 282 % of control | dose: 40.0 mg/kg/injection, schedule: Q01DX010 (ip), vehicle: saline 300 % of control | dose: 45.0 mg/kg/injection, schedule: Q04DX003 (ip), vehicle: saline 240 % of control | dose: 66.0 mg/kg/injection, schedule: Q04DX003 (ip), vehicle: saline 245 % of control | dose: 150.0 mg/kg/injection, schedule: Q04DX003 (ip), vehicle: saline 300 % of control

ON=C(c1ccccn1)c1ccccn1
inactive: dose: 100.0 mg/kg/injection, schedule: Q04DX003 (ip), vehicle: gum acacia 100 % of control | dose: 200.0 mg/kg/injection, schedule: Q04DX003 (ip), vehicle: gum acacia 104 % of control | dose: 400.0 mg/kg/injection, schedule: Q04DX003 (ip), vehicle: gum acacia 104 % of control

[I][Hg][CH2]C1OCCOC1[CH2][Hg][I] (configuration not stated)
inactive: [2] 116 % of control | [3] 116 % of control

Cc1cccc(Cl)c1NC(=O)CCCl
inactive: [4] 90 % of control | [5] 90 % of control | [6] 109 % of control

COc1ccc(OC)c2c1C(SC)C(=O)N2C (configuration not stated)
inactive: [7] 100 % of control | dose: 100.0 mg/kg/injection, schedule: Q04DX002 (ip), vehicle: saline with Tween-80 100 % of control | dose: 200.0 mg/kg/injection, schedule: Q04DX002 (ip), vehicle: saline with Tween-80 107 % of control

N#CC(=C=[N-])[n+]1ccccc1
inactive: dose: 3.12 mg/kg/injection, schedule: Q01DX009 (ip), vehicle: Klucel (hydroxypropylcellulose) (HPC) 110 % of control | dose: 6.25 mg/kg/injection, schedule: Q01DX009 (ip), vehicle: Klucel (hydroxypropylcellulose) (HPC) 110 % of control | dose: 12.5 mg/kg/injection, schedule: Q01DX009 (ip), vehicle: Klucel (hydroxypropylcellulose) (HPC) 100 % of control | dose: 18.0 mg/kg/injection, schedule: Q01DX009 (ip), vehicle: Klucel (hydroxypropylcellulose) (HPC) 100 % of control | dose: 28.0 mg/kg/injection, schedule: Q01DX009 (ip), vehicle: Klucel (hydroxypropylcellulose) (HPC) 115 % of control

CN(C)c1ccc(/C=C/c2nc3ccccc3s2)cc1
inactive: [8] 100 % of control | [9] 112 % of control | [10] 109 % of control | [11] 108 % of control | [12] 109 % of control | [13] 100 % of control

COc1ccc(/C=C/c2c[n+]([O-])ccc2[N+](=O)[O-])cc1
inactive: [14] 105 % of control | [2] 109 % of control | [3] 119 % of control

NC(=O)N/N=C/c1ccccc1N
inactive: [8] 90 % of control | [10] 100 % of control | [12] 100 % of control

Cc1ccc(Nc2nnc(N=Nc3ccccc3)s2)cc1C
inactive: dose: 100.0 mg/kg/injection, schedule: Q01DX001 (ip), vehicle: Klucel (hydroxypropylcellulose) (HPC) 100 % of control | dose: 200.0 mg/kg/injection, schedule: Q01DX001 (ip), vehicle: Klucel (hydroxypropylcellulose) (HPC) 90 % of control | dose: 400.0 mg/kg/injection, schedule: Q01DX001 (ip), vehicle: Klucel (hydroxypropylcellulose) (HPC) 100 % of control

CCC(C)C1NC(=O)C2CCCN2C(=O)C(CC(C)C)OC(=O)CCNC(=O)C(C)N(C)C(=O)C(C(C)C)N(C)C1=O (configuration not stated) (cyclo([ξLac(3-iPr)]PI[NMeV][NMeA][βAla]); configuration not given here)
inactive: dose: 0.82 mg/kg/injection, schedule: Q01DX009 (ip), vehicle: saline 115 % of control | dose: 1.25 mg/kg/injection, schedule: Q01DX009 (ip), vehicle: saline 91 % of control | dose: 1.8 mg/kg/injection, schedule: Q01DX009 (ip), vehicle: saline 107 % of control | dose: 2.5 mg/kg/injection, schedule: Q01DX009 (ip), vehicle: saline 96 % of control | dose: 5.0 mg/kg/injection, schedule: Q01DX009 (ip), vehicle: saline 108 % of control | [1] 104 % of control

Cc1ccccc1NC(=O)Nc1ccccc1C
inactive: [15] 88 % of control | dose: 0.75 mg/kg/injection, schedule: Q01DX009 (ip), vehicle: Klucel (hydroxypropylcellulose) (HPC) 100 % of control | dose: 1.5 mg/kg/injection, schedule: Q01DX009 (ip), vehicle: Klucel (hydroxypropylcellulose) (HPC) 107 % of control | [9] 104 % of control | [11] 95 % of control | [13] 109 % of control

Cc1ccc(C2(C#N)CCCCC2)cc1
inactive: dose: 66.0 mg/kg/injection, schedule: Q01DX009 (ip), vehicle: saline with Tween-80 116 % of control | [2] 120 % of control | [4] 100 % of control | dose: 150.0 mg/kg/injection, schedule: Q01DX009 (ip), vehicle: saline with Tween-80 112 % of control | [3] 108 % of control | [5] 108 % of control | [16] 116 % of control | [6] 112 % of control

CCC(c1ccc(OC)cc1)C(NCC(=O)NNC(=O)CNC(c1ccc(OC)cc1)C(CC)c1ccc(OC)cc1)c1ccc(OC)cc1 (configuration not stated)
inactive: dose: 12.5 mg/kg/injection, schedule: Q04DX002 (ip), vehicle: saline with Tween-80 110 % of control | dose: 25.0 mg/kg/injection, schedule: Q04DX002 (ip), vehicle: saline with Tween-80 88 % of control | [7] 94 % of control

COCCn1c2c(n/c(=C(\O)OC)c1=N)CCCC=2
inactive: [14] 106 % of control | [2] 116 % of control | [3] 97 % of control

II
inactive: dose: 12.0 mg/kg/injection, schedule: Q01DX010 (ip), vehicle: acetone 114 % of control | dose: 25.0 mg/kg/injection, schedule: Q01DX010 (ip), vehicle: acetone 96 % of control | dose: 50.0 mg/kg/injection, schedule: Q01DX010 (ip), vehicle: acetone 110 % of control

C[n+]1c(/C=C/c2ccc(N(CCC(=O)O)CCC(=O)O)cc2)ccc2cc(Cl)ccc21
inactive: dose: 12.5 mg/kg/injection, schedule: Q01DX001 (ip), vehicle: saline with Tween-80 109 % of control | dose: 25.0 mg/kg/injection, schedule: Q01DX001 (ip), vehicle: saline with Tween-80 88 % of control

CC[N+]1(CC)CCOC(=O)C1
inactive: dose: 100.0 mg/kg/injection, schedule: Q01DX009 (ip), vehicle: saline 92 % of control | dose: 200.0 mg/kg/injection, schedule: Q01DX009 (ip), vehicle: saline 92 % of control | dose: 400.0 mg/kg/injection, schedule: Q01DX009 (ip), vehicle: saline 92 % of control

CC(C(=O)O)N(CC(=O)O)CC(=O)O.[Co+2].[NH-]CC(=O)O (configuration not stated)
inactive: dose: 12.5 mg/kg/injection, schedule: Q01DX009 (ip), vehicle: water 99 % of control | dose: 25.0 mg/kg/injection, schedule: Q01DX009 (ip), vehicle: water 108 % of control | dose: 50.0 mg/kg/injection, schedule: Q01DX009 (ip), vehicle: water 105 % of control | dose: 50.0 mg/kg/injection, schedule: Q04DX003 (ip), vehicle: water 103 % of control | dose: 100.0 mg/kg/injection, schedule: Q04DX003 (ip), vehicle: water 96 % of control

CCCCCCCCCCCC[N+]1(CCCCCCCCCCCC)CCCC(C)C1 (configuration not stated)
inactive: [15] 108 % of control

CC(c1ccccc1)N1COc2ccc3ccccc3c2C1 (configuration not stated)
inactive: [2] 100 % of control | [3] 104 % of control | [16] 113 % of control
